Test results published in patent publication US20250332300A1 (priority 2024, published 2025).
Structures can show the parent of a compound that is named as a salt. Where two headings read alike, the source gives them in different places. Starred links: 1 amine or outer side, 2 acyl side, 3 side chain; linkers in the order of their positions; H or OH if unused. Positions of bridges follow the written chain, without caps; N, C: chain ends. Non-standard residues stand in square brackets, D forms with d. Residues, ends and D or L forms follow the SMILES beside them. *: point of attachment. DOTA = O=C(O)CN1CCN(CC(=O)O)CCN(CC(=O)*)CCN(CC(=O)O)CC1; Trp(5-OH) = N[C@@H](Cc1c[nH]c2ccc(O)cc12)C(=O)O; NMePhe(4-F) = CN[C@@H](Cc1ccc(F)cc1)C(=O)O; Lys(N3) = [N-]=[N+]=NCCCC[C@H](N)C(=O)O; NMehPhe = CN[C@@H](CCc1ccccc1)C(=O)O; Aad = N[C@@H](CCCC(=O)O)C(=O)O; Gly(cPr) = N[C@H](C(=O)O)C1CC1; NMehCys = CN[C@@H](CCS)C(=O)O; NMeK = CN[C@@H](CCCCN)C(=O)O; NMeDap = CN[C@@H](CN)C(=O)O; NMeC = CN[C@@H](CS)C(=O)O; NMeS = CN[C@@H](CO)C(=O)O; hCys = N[C@@H](CCS)C(=O)O; Dap = NC[C@H](N)C(=O)O; X5 = O=C(C[*:2])[*:1]

Experiments:
Assay type in all cases: binding
human HER2 (23-652) [1] = molecular target: T1, human HER2 (23-652) (Homo sapiens, UniProt P04626); assay: Surface plasmon resonance (SPR) for assessment of peptide affinity, human HER2; design: towards human HER2 (23-652) and mouse HER2 (23-653); made in house
How it was run: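 Binding kinetics fitted from sensorgrams with 280 s peptide association then 3000 s dissociation (30 uL/min), using HER2 (23-652) either directly immobilized (SA/CM5) or anti-Fc-captured; 3 M magnesium chloride used for regeneration.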

mouse HER2 (23-653) [2] = molecular target: T2, mouse HER2 (23-653) (Mus musculus, UniProt P70424); assay: Surface plasmon resonance (SPR) for assessment of peptide affinity, mouse HER2; design: mouse HER2 (23-653) using a Cy5 labeled peptide as a probe; made in house; conditions: SPR, mouse HER2 extracellular domain, 25° C., 1:1 binding model; read-out: moHER2-SPR-ONC KD
Description: Each protein was immobilized either onto a SA sensorchip (Cytiva, BR-1005-31) or CM5 sensorchip (Cytiva, BR-1005-30) to a density of 800-2000 RU.

mouse HER2 (23-653) [3] = molecular target: T2, mouse HER2 (23-653); assay: TR-FRET competition assay for peptide potency, mouse HER2; design: mouse HER2 (23-653) using a Cy5 labeled peptide as a probe; made in house; host or cells: mammalian cells
human HER2 (23-652) [4] = molecular target: T1, human HER2 (23-652); assay: TR-FRET competition assay for peptide potency, human HER2; design: towards human HER2 (23-652) and mouse HER2 (23-653); made in house; host or cells: mammalian cells
[5] = TR-FRET competition with Cy5 labeled peptide probe, 0.1 nM mouse HER2, 24 h incubation, read-out: moHER2 TR-FRET IC50
[6] = huHER2 TR-FRET IC50, TR-FRET competition with Cy5 labeled peptide probe, 0.1 nM human HER2, 24 h incubation
[7] = SPR, human HER2 extracellular domain, 25° C., 1:1 binding model, read-out: huHER2-SPR-ONC KD

Kd (mouse HER2 (23-653) [2]) | IC50 (mouse HER2 (23-653) [3]; [5]) | Kd (human HER2 (23-652) [1]; [7]) | IC50 (human HER2 (23-652) [4]; read-out: huHER2 TR-FRET IC50) | IC50 (mouse HER2 (23-653) [3]; value in parentheses (**): recalculated after further repetition, read-out: moHER2 TR-FRET IC50, recalculated value achieved after further repetition) | SMILES | Kd (human HER2 (23-652) [1]) | IC50 (human HER2 (23-652) [4]; [6])
148 nM | 287 nM | 178 nM | 97 nM |  | CC(=O)NCCCC[C@H]1C(=O)N[C@@H](Cc2c[nH]c3ccc(O)cc23)C(=O)N[C@@H](Cc2c[nH]c3ccccc23)C(=O)N[C@@H](C2CC2)C(=O)N(C)[C@H](C(=O)N(C)[C@@H](Cc2ccc(F)cc2)C(N)=O)CCSSCC[C@H](N)C(=O)N[C@@H](Cc2ccc(O)cc2)C(=O)N[C@@H](CO)C(=O)N(C)[C@@H](CCc2ccccc2)C(=O)N1C [Example A55, (5S,8S,11S,14S,17S,20S,23S,26S,29S)-11-((1H-indol-3-yl)methyl)-17-(4-acetamidobutyl)-29-amino-N-((S)-1-amino-3-(4-fluorophenyl)-1-oxopropan-2-y1)-8-cyclopropyl-14-((5-hydroxy-1H-indol-3-yl)methyl)-26-(4-hydroxybenzyl)-23-(hydroxymethyl)-N,6,18,21-tetramethyl-7,10,13,16,19,22,25,28-octaoxo-20-phenethyl-1,2-dithia-6,9,12,15,18,21,24,27-octaazacyclohentriacontane-5-carboxamide TFA salt] (H-[hCys]YS[NMehPhe][NMeK](Ac)[Trp(5-OH)]W[Gly(cPr)][NMehCys][NMePhe(4-F)]-NH2; disulfide 1-9) |  | 
413 nM | 755 nM | 443 nM | 229 nM |  | CC(=O)NCCCC[C@H]1C(=O)N[C@@H](Cc2c[nH]c3ccc(O)cc23)C(=O)N[C@@H](Cc2c[nH]c3ccccc23)C(=O)N[C@@H](C2CC2)C(=O)N(C)[C@H](C(=O)N(C)[C@@H](Cc2ccc(F)cc2)C(N)=O)CCSSC[C@H](N)C(=O)N[C@@H](Cc2ccc(O)cc2)C(=O)N[C@@H](CO)C(=O)N(C)[C@@H](CCc2ccccc2)C(=O)N1C [Example A56, (5S,8S,11S,14S,17S,20S,23S,26S,29R)-11-((1H-indol-3-yl)methyl)-17-(4-acetamidobutyl)-29-amino-N-((S)-1-amino-3-(4-fluorophenyl)-1-oxopropan-2-yl)-8-cyclopropyl-14-((5-hydroxy-1/-indol-3-y1)methyl)-26-(4-hydroxybenzyl)-23-(hydroxymethyl)-N,6,18,21-tetramethyl-7,10,13,16,19,22,25,28-octaoxo-20-phenethyl-1,2-dithia-6,9,12,15,18,21,24,27-octaazacyclotriacontane-5-carboxamide TFA salt] (H-CYS[NMehPhe][NMeK](Ac)[Trp(5-OH)]W[Gly(cPr)][NMehCys][NMePhe(4-F)]-NH2; disulfide 1-9) |  | 
1460 nM | > 1000 nM | 2000 nM | > 1000 nM |  | CN1C(=O)[C@H](CO)NC(=O)[C@H](Cc2ccc(O)cc2)NC(=O)[C@@H](N)CCSSC[C@@H](C(=O)N(C)[C@@H](Cc2ccc(F)cc2)C(N)=O)N(C)C(=O)[C@H](C2CC2)NC(=O)[C@H](Cc2c[nH]c3ccccc23)NC(=O)[C@H](Cc2c[nH]c3ccc(O)cc23)NC(=O)[C@H](CO)N(C)C(=O)[C@@H]1CCc1ccccc1 [Example A57, (4R,7S,10S,13S,16S,19S,22S,25S,28S)-10-((1H-indol-3-yl)methyl)-28-amino-N-((S)-1-amino-3-(4-fluorophenyl)-1-oxopropan-2-y1)-7-cyclopropyl-13-((5-hydroxy-1H-indol-3-y1)methyl)-25-(4-hydroxybenzyl)-16,22-bis(hydroxymethyl)-N,5,17,20-tetramethyl-6,9,12,15,18,21,24,27-octaoxo-19-phenethyl-1,2-dithia-5,8,11,14,17,20,23,26-octaazacyclotriacontane-4-carboxamide TFA salt] (H-[hCys]YS[NMehPhe][NMeS][Trp(5-OH)]W[Gly(cPr)][NMeC][NMePhe(4-F)]-NH2; disulfide 1-9) |  | 
0.1 nM | 0.5 nM | 0.1 nM | 0.1 nM | 0.3 nM | CC(=O)NCCCC[C@H]1C(=O)N[C@@H](Cc2c[nH]c3ccc(O)cc23)C(=O)N[C@@H](Cc2c[nH]c3ccccc23)C(=O)N[C@@H](C2CC2)C(=O)N(C)[C@H](C(=O)N(C)[C@@H](Cc2ccc(F)cc2)C(=O)N[C@@H](CCCCN=[N+]=[N-])C(N)=O)CNC(=O)CCC[C@H](NC(C)=O)C(=O)N[C@@H](Cc2ccc(O)cc2)C(=O)N[C@@H](CO)C(=O)N(C)[C@@H](CCc2ccccc2)C(=O)N1C [Example A74] (Ac-[Aad]YS[NMehPhe][NMeK](Ac)[Trp(5-OH)]W[Gly(cPr)][NMeDap][NMePhe(4-F)][Lys(N3)]-NH2; lactam 1-9) |  | 

SMILES | Kd (mouse HER2 (23-653) [2]) | IC50 (mouse HER2 (23-653) [3]; [5]) | Kd (human HER2 (23-652) [1]; [7]) | IC50 (human HER2 (23-652) [4]; read-out: huHER2 TR-FRET IC50) | IC50 (mouse HER2 (23-653) [3]; value in parentheses (**): recalculated after further repetition, read-out: moHER2 TR-FRET IC50, recalculated value achieved after further repetition) | Kd (human HER2 (23-652) [1]) | IC50 (human HER2 (23-652) [4]; [6])
CN1C(=O)[C@H](CO)NC(=O)[C@H](Cc2ccc(O)cc2)NC(=O)[C@@H](N)CNC(=O)CSC[C@@H](C(=O)N(C)[C@@H](Cc2ccc(F)cc2)C(N)=O)N(C)C(=O)[C@H](C2CC2)NC(=O)[C@H](Cc2c[nH]c3ccccc23)NC(=O)[C@H](Cc2c[nH]c3ccc(O)cc23)NC(=O)[C@H](CO)N(C)C(=O)[C@@H]1CCc1ccccc1 [Example A53, (3R,6S,9S,12S,15S,18S,21S,24S,27S)-9-((1H-indol-3-yl)methyl)-27-amino-N—((S)-1-amino-3-(4-fluorophenyl)-1-oxopropan-2-yl)-6-cyclopropyl-12-((5-hydroxy-1H-indol-3-yl)methyl)-24-(4-hydroxybenzyl)-15,21-bis(hydroxymethyl)-N,4,16,19-tetramethyl-5,8,11,14,17,20,23,26,30-nonaoxo-18-phenethyl-1-thia-4,7,10,13,16,19,22,25,29-nonaazacyclohentriacontane-3-carboxamide TFA salt] (H-[Dap]YS[NMehPhe][NMeS][Trp(5-OH)]W[Gly(cPr)][NMeC][NMePhe(4-F)]-NH2; linker 1-9 via X5) | 154 nM | 466 nM |  |  |  | 132 nM | 163 nM
CN1C(=O)[C@H](CO)NC(=O)[C@H](Cc2ccc(O)cc2)NC(=O)[C@@H](N)CSSC[C@@H](C(=O)N(C)[C@@H](Cc2ccc(F)cc2)C(N)=O)N(C)C(=O)[C@H](C2CC2)NC(=O)[C@H](Cc2c[nH]c3ccccc23)NC(=O)[C@H](Cc2c[nH]c3ccc(O)cc23)NC(=O)[C@H](CO)N(C)C(=O)[C@@H]1CCc1ccccc1 [Example A54, (4R,7S,10S,13S,16S,19S,22S,25S,28R)-10-((1H-indol-3-yl)methyl)-28-amino-N—((S)-1-amino-3-(4-fluorophenyl)-1-oxopropan-2-yl)-7-cyclopropyl-13-((5-hydroxy-1H-indol-3-yl)methyl)-25-(4-hydroxybenzyl)-16,22-bis(hydroxymethyl)-N,5,17,20-tetramethyl-6,9,12,15,18,21,24,27-octaoxo-19-phenethyl-1,2-dithia-5,8,11,14,17,20,23,26-octaazacyclononacosane-4-carboxamide TFA salt] (H-CYS[NMehPhe][NMeS][Trp(5-OH)]W[Gly(cPr)][NMeC][NMePhe(4-F)]-NH2; disulfide 1-9) | 5310 nM | > 1000 nM |  |  |  | 1710 nM | > 1000 nM
CC(=O)NCCCC[C@H]1C(=O)N[C@@H](Cc2c[nH]c3ccc(O)cc23)C(=O)N[C@@H](C)C(=O)N[C@@H](C2CC2)C(=O)N(C)[C@H](C(=O)N(C)[C@@H](Cc2ccc(F)cc2)C(=O)N[C@@H](CCCCNC(=O)CN2CCN(CC(=O)O)CCN(CC(=O)O)CCN(CC(=O)O)CC2)C(N)=O)CNC(=O)CCC[C@H](NC(C)=O)C(=O)N[C@@H](Cc2ccc(O)cc2)C(=O)N[C@@H](CO)C(=O)N(C)[C@@H](CCc2ccccc2)C(=O)N1C [Example B3] (Ac-[Aad]YS[NMehPhe][NMeK](Ac)[Trp(5-OH)]A[Gly(cPr)][NMeDap][NMePhe(4-F)]K(DOTA)-NH2; lactam 1-9) | > 6000 nM | > 1000 nM | > 6000 nM | > 1000 nM |  |  | 
